# Assay results from publication PMC7395068, “The evolution of strategies to minimise the risk of human drug-induced liver injury (DILI) in drug discovery and development” (Archives of Toxicology, 2020).
# Read-outs that look alike come from different tables or passages of the source.
# How the values were obtained:
# [1] = system: HepG2; set-up: method as in Albrecht 2019; conditions: In vitro Assay; ref Albrecht 2019; cited from earlier work
# [2] = cited from earlier work
# [3] = system: primary human hepatocytes, NIH3T3 fibroblasts, BSEP, CYP3A4; conditions: In vitro Assay; ref Schadt 2015; cited from earlier work
# [4] = system: human hepatocytes; conditions: cited from earlier work; for Structural based (HCI): In vitro Assay, ref Xu 2008
# [5] = system: THLE or HepG2 cells, isolated mitochondria, BSEP; conditions: In vitro Assay; ref Aleo 2019; cited from earlier work
# [6] = cited from earlier work; remark: listed apart in the source
# [7] = system: PHH; conditions: In vitro Assay; ref Albrecht 2019; cited from earlier work
# [8] = ref Chen 2011; cited from earlier work
# [9] = Plasma free fraction (fu) and unbound Cmax (Cmax,u); assay type: in vitro ADME, human; conditions: unbound plasma Cmax
# Protocol: The prediction of DILI severity was evaluated further using the 3D combined HCI assays using plasma-free fraction. The majority of fu values were obtained from literature, when unavailable in-house prediction was utilised. Unbound plasma Cmax concentrations (Cmax,u) were derived by multiplying total plasma Cmax with the corresponding free fraction (fu) for each compound.
# [10] = system: hLiMTs
# [11] = system: HepaRG spheroids
# [12] = system: HepG2 cells; conditions: cited from earlier work
# [13] = system: HepG2 cells; conditions: cited from earlier work; remark: listed apart in the source
# [14] = system: PHH; conditions: cited from earlier work
# [15] = system: hLiMTs; conditions: cited from earlier work
# [16] = system: PHH spheroids; conditions: cited from earlier work
# [17] = read-out: Human plasma Cmax; total plasma Cmax.tot, median of 9 literature references; cited from earlier work
# [18] = plasma free fraction; cited from earlier work
# [19] = system: HepG2 cells, primary human hepatocytes; conditions: In vitro Assay; ref Garside 2014; cited from earlier work
# [20] = system: hLiMTs; assay: Combined HCI (HCS) and cellular ATP 3D assay in hLiMTs
# [21] = system: HepaRG spheroids; assay: Combined HCI (HCS) and cellular ATP 3D assay in HepaRG spheroids; conditions: HepaRG; for AC50 / minimal effective concentration: Homo sapiens
# [22] = In vitro Assay, ref Persson 2013
# [23] = In vitro Assay, ref Proctor 2017
smiles,measurement,setting,value
Clc1cccc(Cl)c1N=C1NCCN1 [clonidine],Cytotoxicity HepG2 48 hrs,[1],-VE
same,"DILI +VE (5-8), DILI -VE (-4)",[2]; ref Chen 2016,-VE
same,DILI severity category,[2]; ref Chen 2016,Ambiguous DILI-concern
same,Cellular toxicity (3T3 cells),[3],-VE
same,Combined Assay,[3],-VE
same,GSH adduct HML,[3],-VE
same,Hepatocyte cellular toxicity,[3],-VE
same,MitoTox 3T3,[3],-VE
same,TDI CYP3A4,[3],-VE
same,hBSEP inhibition,[3],-VE
same,Structural based (HCI),[4],-VE
same,Partition Hybrid HRM Score,[5],-VE
same,Ro2 Hybrid HRM Score,[5],-VE
same,In vivo DILI,[6]; ref Albrecht 2019,-VE
same,In vivo DILI,[6]; ref Schadt 2015,-VE
same,In vivo DILI,[6]; ref Xu 2008,+VE
same,Cytotoxicity PHH 48 hrs,[7],-VE
same,DILI Score (FDA) (1-8),[8],3
O=C1CN(/N=C/c2ccc(-c3ccc([N+](=O)[O-])cc3)o2)C(O)=N1 [dantrolene],"Human plasma Cmax,u",[9],0.552 µM
same,DILI prediction hLiMTs (HCS-MEC),[10],+VE (MEC < 25 × Cmax.tot cut-off)
same,DILI prediction HepaRG spheroids (HCS-MEC),[11],+VE (MEC < 25 × Cmax.tot cut-off)
same,DILI severity category (Chen et al. [2016]),"[2]; LTKB DILIrank category, ref Chen et al. 2016",Most
same,DILI severity category (Chen 2016),"[2]; human DILI classification, LTKB DILIrank, ref Chen et al. 2016",Most
same,DILI severity category,"[2]; human DILI severity, ref Chen et al.",Most
same,"DILI +VE (5-8), DILI -VE (-4)",[2]; ref Chen 2016,+VE
same,DILI severity category,[2]; ref Chen 2016,vMost-DILI-Concern
same,Structural based (HCI),"[12]; In vitro Assay, ref O'Brien 2006",+VE
same,"DILI in vitro assay prediction, O'Brien (2006)","[12]; Structural based (HCI), HepG2, ref O'Brien et al. 2006",+VE (lowest HCI endpoint IC50 (or in the absence of dose–response < 100 µM) < 30 × total human plasma exposure levels (Cmax.tot))
same,Cluser analysis,[13]; [22],-VE
same,Structural based (HCI),[13]; [22],+VE
same,"DILI in vitro assay prediction, Persson (2013)","[13]; Structural based (HCI), HepG2, ref Persson et al. 2013",-VE
same,Structural based (HCI),[4],+VE
same,"DILI in vitro assay prediction, Xu (2008)","[4]; Structural based (HCI), human hepatocytes, ref Xu et al. 2008",+VE
same,"PHH/100uM, Proctor (2017)","[14]; 2D PHH, ATP, IC50 threshold 100 µM, ref Proctor et al. 2017",-VE
same,PHH ATP <100uM,[14]; [23],-VE
same,hLiMTs ATP <100uM,[15]; [23],-VE
same,"hLiMTs/100uM, Proctor (2017)","[15]; hLiMTs, ATP, IC50 threshold 100 µM, ref Proctor et al. 2017",-VE
same,hLiMTs ATP <20 x Cmax,"[16]; In vitro Assay, ref Vorrink 2018",+VE (IC20 < 20 × Cmax.tot cut-off)
same,"DILI in vitro assay prediction, Vorrink (2018)","[16]; PHH spheroids, ATP, 14 days, IC20 < 20 × Cmax.tot, ref Vorrink et al. 2018",+VE (IC20 < 20 × Cmax.tot cut-off)
same,Cmax,[17],3.95 µM
same,fu,[18],0.140
same,Assigned DILI category,"[6]; Chen et al. 2016 or literature alignment, ref Chen et al. 2016",3
same,In vivo DILI,[6]; […],+VE
same,In vivo DILI,[6]; ref Garside 2014,+VE
same,In vivo DILI,[6]; ref O'Brien 2006,+VE
same,In vivo DILI,[6]; ref Persson 2013,+VE
same,In vivo DILI,[6]; ref Proctor 2017,+VE
same,In vivo DILI,[6]; ref Vorrink 2018,+VE
same,In vivo DILI,[6]; ref Williams 2019,+VE
same,In vivo DILI,[6]; ref Xu 2008,+VE
same,Cluster 1-6 +VE Assay,[19],-VE
same,DILI Score (FDA) (1-8),[8],8
same,"DILI prediction hLiMTs, HCI alone","[20]; HCS endpoints only, 25 × Cmax.tot cut-off",detection
same,AC50,"[20]; Homo sapiens, read-out: HCS endpoint AC50",51 µM
same,minimal effective concentration,"[20]; Homo sapiens, read-out: HCS endpoint MEC",10.5 µM
same,"DILI prediction hLiMTs, ATP alone","[20]; cellular ATP only, 25 × Cmax.tot cut-off",unpredicted
same,hLiMTs <25x Avg Cmax ATP,"[20]; hLiMTs, ATP endpoint, cut-off <25x Avg Cmax",-ve
same,hLiMTs <100x Avg Cmaxu ATP,"[20]; hLiMTs, ATP endpoint, cut-off <100x Avg Cmaxu",-ve
same,hLiMTs <25x Avg Cmax HCS,"[20]; hLiMTs, HCS endpoints, cut-off <25x Avg Cmax",+ve
same,hLiMTs <100x Avg Cmaxu HCS,"[20]; hLiMTs, HCS endpoints, cut-off <100x Avg Cmaxu",+ve (<100x Avg Cmaxu)
same,hLiMTs <25x Avg Cmax All,"[20]; hLiMTs, all endpoints (ATP and HCS), cut-off <25x Avg Cmax",+ve
same,hLiMTs Cmax max All,"[20]; hLiMTs, all endpoints, Cmax max used",+ve
same,hLiMTs Cmax min All,"[20]; hLiMTs, all endpoints, Cmax min used",-ve
same,hLiMTs <10 uM All,"[20]; hLiMTs, all endpoints, cut-off <10 uM",-ve
same,hLiMTs <100x Avg Cmaxu All,"[20]; hLiMTs, all endpoints, cut-off <100x Avg Cmaxu",+ve (<100x Avg Cmaxu)
same,HepaRG <25x Avg Cmax ATP,"[21]; ATP endpoint, cut-off <25x Avg Cmax",+ve
same,HepaRG <100x Avg Cmaxu ATP,"[21]; ATP endpoint, cut-off <100x Avg Cmaxu",+ve (<100x Avg Cmaxu)
same,HepaRG <25x Avg Cmax HCS,"[21]; HCS endpoints, cut-off <25x Avg Cmax",+ve
same,HepaRG <100x Avg Cmaxu HCS,"[21]; HCS endpoints, cut-off <100x Avg Cmaxu",+ve (<100x Avg Cmaxu)
same,HepaRG <25x Avg Cmax All,"[21]; all endpoints (ATP and HCS), cut-off <25x Avg Cmax",+ve
same,HepaRG Cmax max All,"[21]; all endpoints, Cmax max used",+ve
same,HepaRG Cmax min All,"[21]; all endpoints, Cmax min used",-ve
same,HepaRG <10 uM All,"[21]; all endpoints, cut-off <10 uM",-ve
same,HepaRG <100x Avg Cmaxu All,"[21]; all endpoints, cut-off <100x Avg Cmaxu",+ve (<100x Avg Cmaxu)
same,AC50,[21]; read-out: ATP endpoint AC50,100 µM
same,minimal effective concentration,[21]; read-out: ATP endpoint MEC,53.2 µM
same,AC50,[21]; read-out: HCS endpoint AC50,174 µM
same,minimal effective concentration,[21]; read-out: HCS endpoint MEC,14.5 µM
OCCOCCN1CCN(C(c2ccccc2)c2ccc(Cl)cc2)CC1 (stereo not drawn) [hydroxyzine],Cytotoxicity HepG2 48 hrs,[1],-VE
same,"DILI +VE (5-8), DILI -VE (-4)",[2]; ref Chen 2016,-VE
same,DILI severity category,[2]; ref Chen 2016,vNo-DILI-Concern
same,Partition Hybrid HRM Score,[5],+VE
same,Ro2 Hybrid HRM Score,[5],+VE
same,In vivo DILI,[6]; […],-VE
same,In vivo DILI,[6]; ref Albrecht 2019,-VE
same,In vivo DILI,[6]; ref Aleo 2019,-VE
same,Cytotoxicity PHH 48 hrs,[7],-VE
